Earlier results in patent publication US20230233498A1, “COMPOSITIONS AND METHODS FOR THE TREATMENT OF COVID-19” (PROTHIONE, LLC, priority 2020, published 2023).
Read-outs that look alike come from different tables or passages of the source.

What was measured:
[1] = tested on: zinc-dependent metalloproteinases; conditions: for GP shedding: higher concentrations (25-50 mM)
[2] = tested on: rotaviruses; conditions: 10 mM
[3] = tested on: Human Foreskin (HF) cells infected with HSV-2-strain G; conditions: 3 to 1.5 mM

In the case of `CNC(=O)[C@@H](NC(=O)[C@H](CC(C)C)[C@H](O)C(=O)NO)C(C)(C)C` [BB2516], the “inhibition of glycoprotein shedding” value ([1]; concentration of 0.5 mM) is listed as “inhibitory effects were observed”.
In the case of `COc1ccc(S(=O)(=O)N(Cc2cccnc2)[C@@H](C(=O)NO)C(C)C)cc1` [CGS-27023A], the GP shedding [1] is listed as “reduced GP shedding”.
For `O=C(O)CN(CCN(CC(=O)O)CC(=O)O)CC(=O)O` [EDTA, ethylenediaminetetraacetic acid], the “effect on viral particles” value [2] is given as “non-infectious viral particles”.
For `CNC(=O)[C@H](Cc1c[nH]c2ccccc12)NC(=O)[C@@H](CC(=O)NO)CC(C)C` [GM6001], the “inhibition of glycoprotein shedding” value ([1]; concentration of 5 mM) is listed as “inhibitory effects were observed”.
For `COc1ccc(S(=O)(=O)N(CC(=O)NO)CC(C)C)cc1` [MMP-3 inhibitor II], the GP shedding [1] is given as “reduced GP shedding”.
For `COc1ccc(S(=O)(=O)N2Cc3ccccc3C[C@@H]2C(=O)NO)cc1` [MMP-8 inhibitor I], the “inhibition of glycoprotein shedding” value ([1]; concentration of 5 mM) is given as “inhibitory effects were observed”.
For `CC(C)C[C@H](CC(=O)NO)C(=O)N[C@@H](Cc1ccc2ccccc2c1)C(=O)N[C@@H](C)C(=O)NCCN` [TAPI-I], the GP shedding [1] is listed as “reduced GP shedding”.
In the case of `O=C(O)c1ccccn1` [picolinic acid], the “apoptosis of infected cells” value [3] is given as “cause apoptosis of HF infected cells”.
